# Experimental data taken from PMC7429848, “XJB-5-131 inhibited ferroptosis in tubular epithelial cells after ischemia−reperfusion injury” (Cell Death & Disease, 2020).
# Experiments:
# [1] = In vivo-based pharmacokinetic model, LC-MS/MS of plasma and tissue homogenates; set-up: species or system mice; details: for AUC0–6 h / AUC0–∞ / MRT0-6h / MRT0–∞ / t1/2 / tmax / Cmax: 3 mg/kg i.v. bolus
# Experimental: (§1) The mice were sacrificed at 0.25, 0.5, 1, 2, 4 and 6 h after i.v. bolus administration of XJB-5-131. […] The concentration of XJB-5-131 in the liver was not obtained. The half-life (t1/2) was approximately 2 h. The area under the concentration–time curve (AUC0−6 h) of plasma was 322.7 µg·h/ml. The AUC0−6 h in the kidney was approximately […] compared with that of the AUC0−6 h in the brain (234.7 µg·h/g versus 4.1 µg·h/g). […] Moreover, the concentration in the kidney was almost close to the plasma concentration and lasted much longer, which predicted the therapeutic value of XJB-5-131 in kidney diseases. Next, we intravenously injected 3 mg/kg BODIPY-FL-XJB-5-131 into mice to explore the distribution of XJB-5-131 in the kidney, and whole-body fluorescence was analyzed at 0 and 30 min after injection.
# Mice were injected with 3 mg/kg XJB-5-131 and were sacrificed at 0.25, 0.5, 1, 2, 4 and 6 h after injection. Plasma, kidney, liver and brain were collected to assess the XJB-5-131 concentration by LC-MS/MS. For plasma samples, an aliquot of 8 µL was protein precipitated with 160 µL IS, and the mixture was vortex-mixed and centrifuged at 12,000 × g for 15 min at 4 °C. Seventy microliters of supernatant was transferred to a 96-well plate and centrifuged for 5 min at 3220 × g and 4 °C, and then 6 µL of supernatant was directly injected for LC-MS/MS analysis. For tissue samples, tissue homogenates (kidney, brain and liver) were prepared by homogenizing tissue with threefold volume of homogenization solution (MeOH/15 mM PBS = 1:2). An aliquot of 20 µL was protein precipitated with 400 µL IS, and the mixture was vortex-mixed and centrifuged at 12,000 rpm for 15 min at 4 °C. Seventy microliters of supernatant was transferred to a 96-well plate and centrifuged for 5 min at 3220 × g and 4 °C, and then 6 µL of supernatant was directly injected for LC-MS/MS analysis.
# renal I/R injury [2] = experiment: Renal I/R model: kidney injury and TEC repair (gross appearance, PAS, KIM-1, Ki67, Sox9); assay type: in vivo; details: mice
# Experimental: (§2) After a minimum of 7 days of acclimation, the mice were anesthetized with a 1% sodium pentobarbital solution (6 mL/kg) by intraperitoneal injection and then placed in a prone position to maintain their body temperature at 36.8–37.2 °C during surgery. After a unilateral dorsal incision to expose the kidneys, the renal artery was occluded using a microvascular clamp (RoBoz Surgical Instrument Co, Gaithersburg, MD, USA) for 30 min. After that, the clamps were removed, and the animals were allowed to recover with free access to food and water.
# (§3) To study the effects of XJB-5-131 on I/R injury, the mice were randomly allocated into the Vehi group and XJB group. The mice were injected intraperitoneally (i.p.) with XJB-5-131 (10 mg/kg) or the respective control 30 min prior to ischemia and for 3 consecutive days after surgery.
# Paraffin-embedded renal sections (4 μm) were subjected to PAS staining to detect morphological changes in the cortex and medulla, and were scored in a blinded fashion using a semiquantitative design as previously reported.
# (§4) Paraffin-embedded renal sections (4 μm) were deparaffinized in xylene, rehydrated in graded alcohol and blocked with 10% goat serum for 30 min. Mouse monoclonal anti-GSDMD (1:50, Santa), mouse monoclonal anti-4-HNE (1:100, R&D), rabbit polyclonal anti-MLKL, goat polyclonal anti-KIM-1 (1:800, R&D), rabbit polyclonal anti-Ki67 (1:100, Abcam), rabbit polyclonal anti-ACSL4 (1:200, Abcam), rabbit polyclonal anti-CD3 (1:100, Dako), rabbit polyclonal anti-ly6G (1:100, Abcam), rat polyclonal anti-F4/80 (1:50, Abcam), and rabbit polyclonal anti-Sox9 (1:100, Abcam) primary antibodies were incubated at 4 °C overnight and subsequently visualized with HRP-conjugated secondary antibody for IHC and fluorescently labeled secondary antibodies for IF. Staining was carefully quantified in each slide by capturing 15 randomly chosen fields in a blind manner, and the data were analyzed using Image Pro Plus software (Media Cybernetics, USA).
# renal I/R injury [3] = experiment: Renal I/R model: intrarenal inflammatory cell infiltration and proinflammatory cytokine mRNA; assay type: in vivo; details: mice, unilateral I/R, 10 mg/kg i.p., vs I/R group
# Experimental: as §2, §3, §4
# Total RNA was extracted from kidney tissue using TRIzol reagent (Takara, Japan). Real-time PCR was carried out using a LightCycler 480 system (Roche, Pleasanton, CA, USA). Relative mRNA for RANTES, MCP-1, IL-6 and GAPDH was quantified in triplicate by SYBR Green RT-PCR.
# ferroptosis in TECs = experiment: Renal I/R model: ferroptosis readouts (mitochondrial morphology, GSH-Px, MDA, 4-HNE, GPX4, ACSL4); assay type: in vivo; details: mice, unilateral I/R, 10 mg/kg i.p.
# Experimental: as §2, §3
# The renal cortices were cut into small pieces (1 mm^3) and fixed with 2.5% glutaraldehyde. Then the samples were dehydrated and embedded. Ultra-thin sections were stained and observed with a transmission electron microscope (Tecnai G^2 20 TWIN, FEI, USA).
# as §4
# The levels of GSH-Px in kidneys were determined using GSH-Px assay kit, respectively (Beyotime China) in line with the manufacturer’s instructions.
# Quantification of MDA levels in kidney tissue after I/R or sham operation was performed by using an MDA assay kit (Beyotime).
# (§5) Renal tissues were lysed in RIPA lysis buffer containing protease inhibitor. Equal amounts of proteins (50 μg) were loaded and separated by 10% SDS-PAGE. The proteins were transferred onto polyvinylidene fluoride membranes (Millipore, USA). The membranes were blocked with 5% skimmed milk in Tris Buffered saline Tween (TBST) for 1 h at room temperature and were then incubated with appropriate primary antibodies against GPX4 (1:10000, Abcam), ACSL4 (1:10000, Abcam, UK), MLKL (1:1000, Abgent), p-MLKL (1:1000, Abcam), RIPK3 (1:1000, ABclonal), p-RIPK3 (1:1000, Abcam), GSDMD (1:1000, Santa) and GAPDH (1:5000, ABclonal) at 4 °C overnight. The blots were washed with TBST for 5 min and incubated with HRP-conjugated secondary antibodies (1:5000; ABclonal) for 1 h. After washing with TBST, the blots were visualized by the enhanced chemiluminescence method (ECL, Bio-Rad). The relative intensity of the target band was normalized to the corresponding loading control intensity and quantified by using ImageJ (NIH, USA).
# RIPK3, MLKL, GSDMD = experiment: Renal I/R model: necroptosis and pyroptosis markers by western blot; assay type: in vivo; details: mice, unilateral I/R, with or without XJB-5-131
# Experimental: as §2, §3, §5
# [4] = Whole-body and organ fluorescence imaging and kidney frozen sections after BODIPY-FL-XJB-5-131 injection; assay type: in vivo; details: mice, BODIPY-FL-labeled XJB-5-131 i.v.
# Experimental: as §1
# Fig. 5 Pharmacokinetics and distribution analysis of XJB-5-131 in vivo and in vitro. a The structure of XJB-5-131. b The tissue concentrations of XJB-5-131 in mice. Mice were injected with XJB-5-131 and sacrificed after 0.25, 0.5, 1, 2, 4 and 6 h. Plasma, kidney, liver and brain were collected for in vivo-based pharmacokinetic assays by LC-MS/MS. […] Whole-body fluorescence imaging was performed at 0 and 30 min, and the fluorescence intensity of various organs (heart, kidney, liver and brain) was measured after 30 min. […]
# [5] = set-up: method as in PMID 26415224; details: cited from earlier work
# HT-1080 cells = test system: HT-1080 cells; set-up: method as in PMID 27725964; details: cited from earlier work
# [6] = stated without reference; cited from earlier work
# [7] = unilateral I/R, 10 mg/kg i.p., day 3, vs I/R group
compound,measurement,setting,value
CC(C)C[C@@H](/C=C/[C@H](Cc1ccccc1)C(=O)N1CCC[C@H]1C(=O)N[C@H](C(=O)N[C@@H](CCCNC(=O)OCc1ccccc1)C(=O)NC1CC(C)(C)N([O])C(C)(C)C1)C(C)C)NC(=O)OC(C)(C)C [XJB-5-131],AUC0–6 h,"[1]; mice, brain",4052 ng·h/g
same,AUC0–∞,"[1]; mice, brain",4859 ng·h/g
same,MRT0-6h,"[1]; mice, brain",3.14 h
same,MRT0–∞,"[1]; mice, brain",1.98 h
same,t1/2,"[1]; mice, brain",2.07 h
same,tmax,"[1]; mice, brain",15 min
same,Cmax,"[1]; mice, brain and plasma",2353 ng/g
same,AUC0–6 h,"[1]; mice, kidney","234,683 ng·h/g"
same,AUC0–∞,"[1]; mice, kidney","255,150 ng·h/g"
same,Cmax,"[1]; mice, kidney","261,067 ng/g"
same,MRT0-6h,"[1]; mice, kidney",2.05 h
same,MRT0–∞,"[1]; mice, kidney",1.42 h
same,t1/2,"[1]; mice, kidney",2.23 h
same,tmax,"[1]; mice, kidney",15 min
same,AUC0–6 h,"[1]; mice, plasma","322,745 ng·h/mL"
same,AUC0–∞,"[1]; mice, plasma","364,783 ng·h/mL"
same,Cmax,"[1]; mice, plasma","186,667 ng/mL"
same,MRT0-6h,"[1]; mice, plasma",2.65 h
same,t1/2,"[1]; mice, plasma",1.77 h
same,tmax,"[1]; mice, plasma",15 min
same,half-life (t1/2),"[1]; mice, i.v.",approximately 2 h
same,plasma-tissue drug transfer,"[1]; mice, i.v.",fast
same,plasma stability,"[1]; mice, i.v., in vivo PK",superior plasma stability
same,AUC0−6 h,"[1]; mice, i.v., kidney",234.7 µg·h/g
same,calculated maximal concentration (Cmax),"[1]; mice, i.v., kidney",261.1 µg/g
same,AUC0−6 h,"[1]; mice, i.v., kidney and brain",4.1 µg·h/g
same,AUC0−6 h,"[1]; mice, i.v., plasma",322.7 µg·h/mL
same,calculated maximal concentration (Cmax),"[1]; mice, i.v., plasma",186.7 µg/mL
same,time of Cmax after vein injection,"[1]; mice, i.v., plasma, kidney and brain",15 min
same,stability in liver homogenate,"[1]; mouse liver homogenate, not detected by LC-MS/MS",unstable
same,benefit at 10mg/kg versus 2.5mg/kg or 20mg/kg,"renal I/R injury [2]; I/R, day 3, PAS staining",better beneficial than other doses
same,kidney injuries and casts (PAS staining),"renal I/R injury [2]; I/R, day 3, vs I/R+Vehicle",ameliorated
same,KIM-1 expression (immunofluorescent staining),renal I/R injury [2]; [7],decreased
same,Sox9 in TECs,renal I/R injury [2]; [7],dramatically activated
same,congestion area at the junction of cortex and medulla,renal I/R injury [2]; [7],reduced
same,loss of tubules (PAS tubular damage),renal I/R injury [2]; [7],alleviated
same,number of Ki67-positive nuclei in TECs,renal I/R injury [2]; [7],much higher number
same,ratio of injured kidney weight to body weight,renal I/R injury [2]; [7],decreased
same,IL-6 mRNA expression in kidney,renal I/R injury [3],suppressed
same,MCP-1 mRNA expression in kidney,renal I/R injury [3],suppressed
same,RANTES mRNA expression in kidney,renal I/R injury [3],suppressed
same,"infiltration of inflammatory cells in the kidney (ly6G, CD3, F4/80 positive cells)",renal I/R injury [3],reduced
same,4-HNE staining,ferroptosis in TECs,less accumulation of lipid peroxidation
same,I/R-induced increase in ACSL4 expression (western blot),ferroptosis in TECs,inhibited
same,renal GPX4 expression (western blot),ferroptosis in TECs,significantly improved
same,resistance of mitochondria in TECs to I/R injury (electron microscopy),ferroptosis in TECs,increased resistance
same,GSH-Px level in kidney,ferroptosis in TECs; day 3,increased levels
same,MDA level in kidney,ferroptosis in TECs; day 3,decreased levels
same,cleavage of GSDMD (GSDMD-N),"RIPK3, MLKL, GSDMD",no statistically significant difference
same,expression of phosphorylated MLKL,"RIPK3, MLKL, GSDMD",no difference
same,expression of phosphorylated RIPK3,"RIPK3, MLKL, GSDMD",no difference
same,cell type distribution in the kidney (fluorescence microscopy of frozen sections),[4],majority of XJB-5-131-positive cells were kidney TECs
same,conversion into XJB-hydroxylamine in situ,[5],easily converted into XJB-hydroxylamine
same,effect on ferroptosis,HT-1080 cells,anti-ferroptotic effects
"CCOC(=O)c1ccc(NC2CCCCC2)c(N)c1 [Fer-1, ferrostatin-1]",stability in plasma,[6],poor
